Experimental data reported in US20250361230A1, “LATS Inhibitors and Uses Thereof” (The USA, as Represented by the Secretary, Dept. of Heath …, priority 2022, published 2025).

The compounds below were run against T1, LATS1 Kinase-NanoLuc fusion in HEK-293 cells (Homo sapiens, UniProt O95835) (assay: NanoBRET target engagement assay in transfected HEK-293 cells, LATS1). Settings: Table 28, NanoBRET, HEK-293 cells; read-out: LATS1 (Cellular) IC50.
T1 construct: host or cells: HEK-293
T1 sequence (O95835 1-1130): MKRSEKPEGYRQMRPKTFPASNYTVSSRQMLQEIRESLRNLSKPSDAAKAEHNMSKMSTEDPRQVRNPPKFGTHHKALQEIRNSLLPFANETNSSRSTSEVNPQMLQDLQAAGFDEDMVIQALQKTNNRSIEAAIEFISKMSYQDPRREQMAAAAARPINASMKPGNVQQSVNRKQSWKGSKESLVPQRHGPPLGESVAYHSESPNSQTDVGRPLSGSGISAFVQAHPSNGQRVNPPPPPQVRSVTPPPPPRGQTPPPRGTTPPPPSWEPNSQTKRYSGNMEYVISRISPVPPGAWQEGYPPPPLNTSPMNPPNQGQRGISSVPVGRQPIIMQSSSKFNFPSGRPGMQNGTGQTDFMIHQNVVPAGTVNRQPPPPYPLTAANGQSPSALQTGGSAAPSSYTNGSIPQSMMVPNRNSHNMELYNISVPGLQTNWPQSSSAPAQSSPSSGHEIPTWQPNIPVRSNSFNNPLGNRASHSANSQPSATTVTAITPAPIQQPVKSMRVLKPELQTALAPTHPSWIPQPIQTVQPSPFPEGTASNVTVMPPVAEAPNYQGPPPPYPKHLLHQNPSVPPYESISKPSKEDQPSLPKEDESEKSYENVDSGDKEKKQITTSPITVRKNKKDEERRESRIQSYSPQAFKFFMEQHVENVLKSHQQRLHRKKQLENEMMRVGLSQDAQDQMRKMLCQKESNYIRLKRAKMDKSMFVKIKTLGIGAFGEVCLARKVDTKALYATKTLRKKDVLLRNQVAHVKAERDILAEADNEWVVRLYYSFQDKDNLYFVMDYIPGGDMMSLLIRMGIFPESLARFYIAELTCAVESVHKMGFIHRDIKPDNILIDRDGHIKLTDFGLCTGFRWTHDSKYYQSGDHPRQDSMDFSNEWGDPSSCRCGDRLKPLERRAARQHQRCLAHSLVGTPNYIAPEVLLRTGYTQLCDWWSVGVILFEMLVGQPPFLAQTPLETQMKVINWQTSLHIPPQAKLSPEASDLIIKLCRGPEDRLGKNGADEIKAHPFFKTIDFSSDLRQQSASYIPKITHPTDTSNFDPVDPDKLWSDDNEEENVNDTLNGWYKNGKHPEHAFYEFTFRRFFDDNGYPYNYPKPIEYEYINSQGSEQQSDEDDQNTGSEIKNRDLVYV
Format: cell-based
Description: The NanoBRET™ assay measures kinase engagement in real time in the context of the intact cell. The assay uses a Kinase-NanoLuc® fusion vector expressing a kinase protein to which a luciferase tag has been added, a cell-permeant fluorescent NanoBRET™ tracer, a NanoLuc® substrate, and an extracellular NanoLuc® inhibitor. Upon expression of the luciferase-tagged kinase, cells will produce a strong BRET signal only in the presence of the NanoBRET™ tracer. The extracellular NanoLuc® inhibitor ensures that the BRET signal observed emanates only from live cells. Because the BRET signal has tight distance constraints, addition of the test compound will decrease the BRET signal if the compound competes with the NanoBRET™ tracer for binding to the kinase domain. Under the appropriate tracer conditions established by the manufacturer, quantitative intracellular affinity and relative potency can then be determined using Mass Action model equations.
HEK-293 cells were purchased from ATCC. FuGENEHD Transfection Reagent, Kinase-NanoLuc® fusion plasmids, Transfection Carrier DNA, NanoBRET™ Tracers and dilution buffer, NanoBRET™ Nano-Glo Substrate, Extracellular NanoLuc® Inhibitor were obtained from Promega.
Assays were conducted following Promega assay protocol with some modifications as described further below. HEK-293 Cells were transiently transfected with Kinase-NanoLuc® Fusion Vector DNA by FuGENE HD Transfection Reagent. Test compounds were delivered into 384 well assay plate by Echo 550 (Labcyte Inc, Sunnyvale, CA). Transfected cells were harvested and mixed with NanoBRET™ Tracer Reagent and dispensed into 384 well plates and incubated at 37° C. in 5% CO2 cell culture incubator for 1 hour. The NanoBRET™ Nano-Glo Substrate plus Extracellular NanoLuc® Inhibitor Solution were added into the wells of the assay plate and incubated for 2-3 minutes at room temperature. The donor emission wavelength (460 nm) and acceptor emission wavelength (600 nm) were measured in the EnVision plate reader. The BRET Ratios were calculated. BRET Ratio=[(Acceptor sample÷Donor sample)−(Acceptor no-tracer control÷Donor no-tracer control)]. The IC50 values of compounds were calculated with Prism GraphPad program.
• 1. Transient Transfection of HEK-293 Cells NanoLuc® Fusion Vector DNA • 1). Cultivate HEK-293 cells (70-80% confluence) appropriately prior to assay. Trypsinize and collect HEK-293 cells. • 2). Prepare lipid: DNA complexes as follows: • a. Prepare a […] solution of DNA in Opti-MEM™ without serum that consists of the following ratios of carrier DNA and DNA encoding NanoLuc® fusion. 9.0 µg/mL of Transfection Carrier DNA, […] of NanoLuc® fusion vector DNA and 1 mL of Opti-MEM™ without phenol red. Mix thoroughly. • b. Add 30 μl of FuGENE HD Transfection Reagent into each milliliter of DNA mixture to form lipid: DNA complex. • c. Mix by inversion 10 times. • d. Incubate at ambient temperature for 20 minutes to allow complexes to form. • 3). In a sterile, conical tube, mix 1 part of lipid: DNA complex with 20 parts of HEK-293 cells in suspension. Mix gently by inversion 5 times. • 4). Dispense cells+lipid: DNA complex into a sterile tissue culture dish and incubate for 22-24 hours. • 2. Addition of Test Compounds (dry plate shooting): Each test compound is delivered from the compound source plate to the wells of 384-well white NBS plate by Echo 550. • 3. Preparation of Cells with NanoBRET™ Tracer Reagent • 1). Remove medium from dish with transfected HEK-293 cells via aspiration, trypsinize and allow cells to dissociate from the dish. • 2). Neutralize trypsin using medium containing serum and centrifuge at 200× g for 5 minutes to pellet the cells. Adjust the cell density to 2×10^5 cells/mL in Opti-MEM™ without phenol red. • 3). Prepare Complete 20× NanoBRET™ Tracer Reagent with Tracer Dilution Buffer. • 4). Dispense one part of Complete 20× NanoBRET™ Tracer Reagent to 20 parts of cells in the tube. Mix gently by inversion 10 times. • 5). […]
`C[C@@H]1CN(C2COC2)C[C@H](C)[C@@]1(O)c1c(F)cc(-c2ccnc3[nH]cc(F)c23)cc1F` [Compound 45, (3S,4s,5R)-4-(2,6-difluoro-4-(3-fluoro-1H-pyrrolo[2,3-b]pyridin-4-yl)phenyl)-3, S-dimethyl-1-(oxetan-3-yl)piperidin-4-ol] was tested, and the IC50 was 813 nM. `C[C@@H]1CNC[C@H](C)[C@@]1(O)c1ccc(-c2ccnc3[nH]cc(F)c23)cc1OC(F)(F)F` [Compound 14, (3S,4s,5R)-4-(4-(3-fluoro-1H-pyrrolo[2,3-b]pyridin-4-yl)-2-(trifluoromethoxy)phenyl)-3,5-dimethylpiperidin-4-ol] showed an IC50 of 2130 nM. `C[C@@H]1CN(CC(N)=O)C[C@H](C)[C@@]1(O)c1c(F)cc(-c2ccnc3[nH]cc(F)c23)cc1F` [Compound 88, 2-((3R,4s,5S)-4-(2,6-difluoro-4-(3-fluoro-1H-pyrrolo[2,3-b]pyridin-4-yl)phenyl)-4-hydroxy-3,5-dimethylpiperidin-1-yl)acetamide] was tested, and the IC50 was 205 nM. Work on `Cc1cc(-c2ccnc3[nH]cc(F)c23)ccc1[C@@]1(O)[C@H](C)CNC[C@@H]1C` [Compound 9, (3S,4s,5R)-4-(4-(3-fluoro-1H-pyrrolo[2,3-b]pyridin-4-yl)-2-methylphenyl)-3,5-dimethylpiperidin-4-ol] yielded an IC50 of 44.6 nM. With `c1cc(-c2ccc(C3CCCCN3)cc2)c2cc[nH]c2n1` (centres unmarked) [Compound 271, 4-(4-(piperidin-2-yl)phenyl)-1H-pyrrolo[2,3-b]pyridine] the IC50 was > 50000 nM. `Cc1cc(-c2ccnc3[nH]cc(F)c23)cc(F)c1[C@@]1(O)[C@H](C)CN(C2CCS(=O)(=O)CC2)C[C@@H]1C` [Compound 57, 4-((3R,4s,5S)-4-(2-fluoro-4-(3-fluoro-1H-pyrrolo[2,3-b]pyridin-4-yl)-6-methylphenyl)-4-hydroxy-3,5-dimethylpiperidin-1-yl)tetrahydro-2H-thiopyran 1,1-dioxide] was tested, and the IC50 was 36.9 nM. In the case of `Cc1cc(-c2ccnc3[nH]cc(F)c23)ccc1[C@@]1(O)[C@H](C)CN(C2CCC2)C[C@@H]1C` [Compound 54, (3R,4s,5S)-1-cyclobutyl-4-(4-(3-fluoro-1H-pyrrolo[2,3-b]pyridin-4-yl)-2-methylphenyl)-3,5-dimethylpiperidin-4-ol], the IC50 is reported as 87 nM. `C[C@@H]1CN(C)C[C@H](C)[C@@]1(O)c1ccc(-c2ccnc3[nH]cc(F)c23)nc1` [Compound 41, (3R,4s,5S)-4-(6-(3-fluoro-1H-pyrrolo[2,3-b]pyridin-4-yl)pyridin-3-yl)-1,3,5-trimethylpiperidin-4-ol] was tested, and the IC50 was 115 nM. `Fc1c[nH]c2nccc(-c3ccc(C4CCNCC4)cc3)c12` [Compound 169, 3-fluoro-4-(4-(piperidin-4-yl)phenyl)-1H-pyrrolo[2,3-b]pyridine] showed an IC50 of 25800 nM. In the case of `Cc1cc(-c2ccnc3[nH]ccc23)ccc1C1CCNCC1` [Compound 177, 4-(3-methyl-4-(piperidin-4-yl)phenyl)-1H-pyrrolo[2,3-b]pyridine], the IC50 is reported as 48300 nM. `COC(=O)c1c[nH]c2nccc(-c3ccc(CN)cc3)c12` [Compound 223, methyl 4-(4-(aminomethyl)phenyl)-1H-pyrrolo[2,3-b]pyridine-3-carboxylate] was tested, and the IC50 was 66800 nM. `Cc1cc(-c2ccnc3[nH]cc(F)c23)cc(F)c1[C@@]1(O)[C@H](C)CN(C(=O)[C@H](N)CO)C[C@@H]1C` [Compound 312, (R)-2-amino-1-((3S,4R,5R)-4-(2-fluoro-4-(3-fluoro-1H-pyrrolo[2,3-b]pyridin-4-yl)-6-methylphenyl)-4-hydroxy-3,5-dimethylpiperidin-1-yl)-3-hydroxypropan-1-one] showed an IC50 of 10.4 nM. Work on `Clc1c[nH]c2nccc(-c3ccc(C4CCNCC4)cc3)c12` [Compound 173, 3-chloro-4-(4-(piperidin-4-yl)phenyl)-1H-pyrrolo[2,3-b]pyridine] yielded an IC50 of 1200 nM. `CC(C)(N)c1ccc(-c2ccnc3[nH]cc(F)c23)cc1` [Compound 238, 2-(4-(3-fluoro-1H-pyrrolo[2,3-b]pyridin-4-yl)phenyl)propan-2-amine] was tested, and the IC50 was 1560 nM. `Cc1cccc(-c2c[nH]c3nccc(-c4ccc(CN)cc4)c23)c1` [Compound 230, (4-(3-(m-tolyl)-1H-pyrrolo[2,3-b]pyridin-4-yl)phenyl) methanamine] showed an IC50 of 5470 nM. `COC(=O)c1c[nH]c2nccc(-c3cc(C)c([C@@]4(O)[C@H](C)CN(C5CCS(=O)(=O)CC5)C[C@@H]4C)c(F)c3)c12` [Compound 309, methyl 4-(4-((3S,4s,5R)-1-(1,1-dioxidotetrahydro-2H-thiopyran-4-yl)-4-hydroxy-3,5-dimethylpiperidin-4-yl)-3-fluoro-5-methylphenyl)-1H-pyrrolo[2,3-b]pyridine-3-carboxylate] gave an IC50 of 1350 nM. Work on `Cc1cc(-c2ccnc3[nH]cc(F)c23)ccc1[C@@]1(O)[C@H](C)CN(C(C)C)C[C@@H]1C` [Compound 29, (3S,4s, 5R)-4-(4-(3-fluoro-1H-pyrrolo[2,3-b]pyridin-4-yl)-2-methylphenyl)-1-isopropyl-3,5-dimethylpiperidin-4-ol] yielded an IC50 of 86 nM. With `C[C@@H]1CNC[C@H](C)[C@@]1(O)c1c(F)cc(-c2ccnc3[nH]cc(F)c23)cc1F` [Compound 13] the IC50 was 1450 nM.

Same assay, conditions: cellular
With `Cc1cc(-c2ccnc3[nH]cc(C#N)c23)cc(F)c1[C@@]1(O)[C@H](C)CN(C(=O)C(N)C(F)(F)F)C[C@@H]1C` (stereo partly drawn) [Compound 2017, 4-(4-((3S,4s,5R)-1-(2-amino-3,3,3-trifluoropropanoyl)-4-hydroxy-3,5-dimethylpiperidin-4-yl)-3-fluoro-5-methylphenyl)-1H-pyrrolo[2,3-b]pyridine-3-carbonitrile] the IC50 was < 2.5 nM. For `Cc1cc(-c2ccnc3[nH]cc(C#N)c23)cc(F)c1[C@@]1(O)[C@H](C)CN(C(=O)[C@H](C)N)C[C@@H]1C` [Compound 2011, 4-(4-((3S,4R,5R)-1-(L-alanyl)-4-hydroxy-3,5-dimethylpiperidin-4-yl)-3-fluoro-5-methylphenyl)-1H-pyrrolo[2,3-b]pyridine-3-carbonitrile], the IC50 was < 2.5 nM.
